We go through 21 compounds from ChEMBL document CHEMBL4184084, “Discovery of Mcl-1 inhibitors based on a thiazolidine-2,4-dione scaffold” (Bioorg Med Chem Lett, 2018).

Broadly, the Ki is a measure of affinity in units of concentration, obtained from inhibition or displacement. Read a low Ki as tighter binding.

The first test deals with Induced myeloid leukemia cell differentiation protein Mcl-1 (Homo sapiens, UniProt Q07820). Nature of the test: Inhibition of FITC-labeled Bak-BH3 peptide binding to MCL1 (172 to 371 residues) (unknown origin) by fluorescence polarization competition assay. Background: Polarisation of emitted light reports the rotation of a fluorescent probe.
Sequence of Induced myeloid leukemia cell differentiation protein Mcl-1 (Q07820 whole entry, the tested form may be a part): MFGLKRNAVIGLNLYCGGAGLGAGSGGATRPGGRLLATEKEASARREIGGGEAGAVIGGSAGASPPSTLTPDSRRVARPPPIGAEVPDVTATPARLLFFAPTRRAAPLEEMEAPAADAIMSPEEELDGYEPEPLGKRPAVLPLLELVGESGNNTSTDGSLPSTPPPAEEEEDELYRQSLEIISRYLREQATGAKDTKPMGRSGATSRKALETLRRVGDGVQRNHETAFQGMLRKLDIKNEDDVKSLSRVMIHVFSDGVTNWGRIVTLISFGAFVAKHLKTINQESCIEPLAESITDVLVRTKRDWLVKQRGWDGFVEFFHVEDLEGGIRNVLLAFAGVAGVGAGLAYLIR
`Cc1cc(Oc2ccc(/C=C3\SC(=O)NC3=O)cc2)cc(C)c1Cl` came in with a Ki greater than 100 µM. `O=C(O)[C@H](Cc1ccccc1)N1C(=O)S/C(=C\c2cccc(Br)c2)C1=O` yielded a Ki of 0.29 µM. In turn, `CC(C)C[C@@H](C(=O)O)N1C(=O)S/C(=C\c2ccc(O)cc2)C1=O` showed a Ki greater than 100 µM. As to `Cc1cc(Oc2ccc(/C=C3\SC(=O)N([C@@H](CC(C)C)C(N)=O)C3=O)cc2)cc(C)c1Cl`, the inhibitory constant (Ki) is greater than 100 µM. In turn, `Cc1cc(Oc2ccc(/C=C3\SC(=O)N([C@@H](C)C(=O)O)C3=O)cc2)cc(C)c1Cl` showed a Ki of 1.94 µM. In turn, `CC(C)C[C@@H](C(=O)O)N1C(=O)S/C(=C\c2cccc(Br)c2)C1=O` gave a Ki of 2.13 µM.

Compound `CC(C)C[C@@H](C(=O)O)N1C(=O)S/C(=C\c2ccc(C(C)(C)C)cc2)C1=O` registered an inhibition constant Ki of 2.22 µM. This Ki and that of the compound before are within 1.5-fold of each other. Turning to `Cc1cc(Oc2ccc(/C=C3\SC(=O)N([C@H](CC(C)C)C(=O)O)C3=O)cc2)cc(C)c1Cl`, the Ki came out at 1 µM. As for `CC(C)C[C@@H](C(=O)O)N1C(=O)S/C(=C\c2ccccc2)C1=O`, the Ki was greater than 100 µM.

`Cc1cc(Oc2ccc(CC3SC(=O)N(CC(=O)O)C3=O)cc2)cc(C)c1Cl` (configuration not stated): the inhibition constant Ki came out at 10.2 µM. With `Cc1cc(Oc2ccc(/C=C3\SC(=O)N([C@@H](CC(C)C)C(=O)O)C3=O)cc2)cc(C)c1Cl`, the Ki is 0.419 µM. The compound `CC(C)C[C@@H](C(=O)O)N1C(=O)S/C(=C\c2ccc(Br)cc2)C1=O` showed a Ki of 8.78 µM. Turning to `Cc1cc(Oc2ccc(/C=C3\SC(=O)N([C@H](C)C(=O)O)C3=O)cc2)cc(C)c1Cl`, the Ki was 2.78 µM. This Ki lies about 3.2-fold lower than the previous one.

Take `Cc1cc(Oc2ccc(/C=C3\SC(=O)N([C@@H](CC(C)C)C(=O)O)C3=O)cc2Br)cc(C)c1Cl`: affinity was put at a Ki of 0.791 µM. In turn, `Cc1cc(Oc2ccc(/C=C3\SC(=O)N([C@H](C(=O)O)C(C)C)C3=O)cc2)cc(C)c1Cl` yielded a Ki of 1.19 µM.

`Cc1cc(Oc2ccc(/C=C3\SC(=O)N([C@H](Cc4ccccc4)C(=O)O)C3=O)cc2)cc(C)c1Cl` had a Ki of 0.878 µM. `CC(C)C[C@@H](C(=O)O)N1C(=O)S/C(=C\c2ccc(Oc3ccccc3)cc2)C1=O` came in with a Ki of 12.7 µM.

Take `Cc1cc(Oc2ccc(/C=C3\SC(=O)N([C@@H](Cc4ccccc4)C(=O)O)C3=O)cc2)cc(C)c1Cl`: the inhibitory constant (Ki) came to 0.155 µM. Against the preceding compound, the Ki is about 82-fold lower.

`Cc1cc(Oc2ccc(/C=C3\SC(=O)N(CC(=O)O)C3=O)cc2)cc(C)c1Cl` showed a Ki of 2.34 µM. This Ki lies about 15-fold higher than the previous one. With `COC(=O)[C@H](CC(C)C)N1C(=O)S/C(=C\c2ccc(Oc3cc(C)c(Cl)c(C)c3)cc2)C1=O`, the inhibition constant Ki is greater than 100 µM. In turn, `CC(C)(C)c1ccc(/C=C2\SC(=O)N([C@@H](Cc3ccccc3)C(=O)O)C2=O)cc1` yielded a Ki of 0.845 µM.

The target of a further test is Bcl-2-like protein 1 (Homo sapiens, UniProt Q07817). Nature of the test: Inhibition of FITC-labeled Bak-BH3 peptide binding to Bcl-XL (2 to 212 residues) (unknown origin) by fluorescence polarization assay.
Sequence of Bcl-2-like protein 1 (Q07817 whole entry, the tested form may be a part): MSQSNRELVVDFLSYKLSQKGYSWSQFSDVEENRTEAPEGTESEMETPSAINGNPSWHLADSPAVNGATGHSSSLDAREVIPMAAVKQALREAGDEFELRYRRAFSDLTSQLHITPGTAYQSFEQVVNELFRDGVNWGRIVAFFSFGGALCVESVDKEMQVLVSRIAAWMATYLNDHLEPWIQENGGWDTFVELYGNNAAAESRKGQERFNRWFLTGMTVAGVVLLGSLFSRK
In turn, `Cc1cc(Oc2ccc(/C=C3\SC(=O)N([C@@H](Cc4ccccc4)C(=O)O)C3=O)cc2)cc(C)c1Cl` returned a Ki of 0.09 µM.
